Source: patent publication US20260183402A1, “NUTRITIONAL COMPOSITION” (priority 2010, published 2026)
Where two headings read alike, the source gives them in different places.

Settings: normal human subjects, measured over 24 hours

Structure (SMILES): C[C@@H](O)CCOC(=O)C[C@@H](C)O [D-β-hydroxybutyrate-R 1,3-butanediol monoester]
- maximum plasma ketone concentration (single dose 140 mg/kg ketone ester in milk-based drink): 0.23 mM
- maximum plasma ketone concentration (single dose 357 mg/kg ketone ester in milk-based drink): 0.76 mM
- maximum plasma ketone concentration (single dose 714 mg/kg ketone ester in milk-based drink): 3.42 mM
